Here are results for three molecules from article PMC12704579, “New Anticancer 4‐Aryldihydropyrimidinone‐5‐Carboxylates Targeting Hsp90” (Chemical Biology & Drug Design, 2025).

A word on the IC50: it is the point on the concentration scale where inhibition reaches its midpoint. As usually defined, the GI50 is the concentration giving 50% growth inhibition. The viability is a read-out of living cells in per cent, often relative to untreated cells.

For one data set, the system named is Bcl3-p50. More on the design: method as in Soukupová [2013]. To be noted: ref Soukupová [2013]; cited from earlier work.
In another data set the test system is HCC1954 cells. On the set-up: method as in Bordoni [2016]. To be noted: invasive breast cancer cell line HCC1954; ref Bordoni [2016]; cited from earlier work.
Another data set relates to MCF-7 cells. Description: Colony forming assay, MCF-7. To be noted: for IC50: Homo sapiens, MCF7, 168 h, 7 days; for % Clonogenicity (MCF-7, 10 μM): percentage of survival colonies, 7-day incubation, standardised to DMSO control. The data set is classed as cell-based, human. The protocol:
(§1) Human Embryonic Kidney cells (HEK‐293) and human breast cancer cells (MCF‐7, MDA‐MB‐231 and HCC1954) were cultured in complete growth media: […] 1X (Gibco); 10% v/v Fetal Bovine Serum (FBS, Sigma Dorset UK) and L‐glutamine (2 mM, Invitrogen). SW‐480‐WT cells were maintained in selective media made up of Dulbecco's Modified Eagle Medium (Gibco), enriched with […] of Geneticin Selective Antibiotic (G418 Sulfate; Gibco, Thermo Fisher). Cells were incubated at a 5% CO2 atmosphere at 37°C.
Cells were seeded in a 12‐well plate at 400 cells per well. One hour after the seeding of the cells, compounds (1 mM, 100 μM, 10 μM, 1 μM, 100 nM, 10 nM) or vehicle were added into the wells in triplicate (DMSO vehicle 0.1% and 1%). After 7 days, colonies were stained with 350 μL of crystal violet solution, incubated for 30 min at room temperature, then wells were washed in water and dried. At least the best 3 independent experiments out of 5 independent repeats were used to perform the statistical analysis of the results. Colonies were counted by GelCount Colony Counter (Oxford Optronix Ltd.) using the GelCount 1.1.8.0 software. Assay end points were normalised to 0% (DMSO only) and fitted to a semi‐log plot using at least n = 3 technical replicates (n = 6 for DMSO control and N = 3 independent replicates). The curve fit was performed using GraphPad Prism.
(§2) In view of previous reports on Hsp90 inhibitors and their effects on cancer cell viability (Eachkoti et al. [2014]) and clonogenicity (Kinzel et al. [2016]), new compounds were tested for inhibition of cell viability within both non‐tumourigenic (HEK‐293) and breast cancer cell lines (MDA‐MB‐231) at a fixed concentration of 10 μM. The well‐established CellTiter‐Blue endpoint assay was used to assess cell viability. New compounds were also assessed in a colony forming assay (MCF‐7 breast cancer cell line), used as an efficacy screening to provide an indication of the inhibition of clonogenicity for these small molecules (Table 1).

Another data set deals with MDA-MB-231 cells. Nature of the data set: CellTiter-Blue cell viability assay, MDA-MB-231 (24 h). The data set is classed as cell-based, human. To be noted: Homo sapiens, MDA-MB-231, 24 h; for GI50: 24 h incubation time; for viability at 10 µM: CellTiter-Blue, 24 h incubation, 10 μM test compound, standardised to DMSO control. The protocol:
as §1
(§3) Cells were cultured in 96‐well plates in 90 μL at a seeding density of 1 × 10^6 cells per well. Compound samples were prepared at different concentrations (1 mM, 100 μM, 10 μM, 1 μM, 100 nM, 10 nM) and 10 μL of each concentration was seeded in each well. Two different negative controls were used: DMSO 0.01% and 0.001%. Paclitaxel (30% w/v) was used as a positive control. Cells were treated for 24 h after which 20 μL of CellTitre‐Blue reagent (Promega, Southampton, UK) was added and incubated for 2 h at 37°C in 5% CO2. Fluorescence was measured at 560/590 nm on a Fluorostar Optima plate reader (BMG Labtech, Bucks, UK). Assay end points were normalised to 0% (DMSO only) and fitted to a semilog plot using at least n = 3 technical replicates (n = 6 for DMSO control and paclitaxel control) and N = 3 independent replicates. The curve fit was performed using the GraphPad Prism software and the standard Hill equation.
as §2

The next data set has as its system HEK-293 cells. Nature of the data set: CellTiter-Blue cell viability assay, HEK-293 (24 h). The data set is classed as cell-based, human. To be noted: Homo sapiens, HEK293; 24 h incubation time. The protocol: as §1, §3, §2
(The colour change of resazurin is a common sign of viable cells or microbes.)

Assay in data set [1]: as above
The data set is classed as cell-based, human. To be noted: human, HEK-293 cells, CellTiter-Blue, 24 h incubation, 10 μM test compound, standardised to DMSO control. The protocol: as §1, §3, §2

The target in data set [2] is T1, Recombinant human Hsp90 alpha protein (Homo sapiens, UniProt P07900).
T1 construct: human full‐length protein, expressed in Escherichia coli; His tag (C); purchased Abcam ab80369; host or cells: Escherichia coli
Nature of the data set: Transcreener ADP FP Hsp90 ATPase assay. The format is biochemical. To be noted: Recombinant human HSP90, 100 μM ATP; read-out: ATPase assay on rh-Hsp90 IC50. The protocol:
Transcreener ADP (cat. no. 3004‐1K) and ADP2 (cat. no. 3010‐1K) FP assay kits were obtained from Bellbrook Laboratories. Recombinant human Hsp90 alpha protein (active), human full‐length protein, expressed in Escherichia coli with > 90% purity and C‐terminus His tag, was purchased from Abcam (ab80369). All FP assays were carried out in black, 384‐well, low‐volume, polystyrene nonbinding microplates from Corning Life Sciences. All basic buffer components were obtained from Sigma‐Aldrich Chemical Co. 17‐AAG (Figure 1) was obtained from Abcam. Using the Transcreener ADP FP kit, the conditions for the recombinant human Hsp90 ATPase reaction were 50 mM HEPES (pH 7.4), 20 mM KCl, 2 mM EGTA, 4 mM MgCl2, and 0.01% Brij‐35 in a 10‐μL total assay volume. The final assay concentration of ATP was 100 μM for Hsp90. Due to the relatively low level of ATPase activity compared with other enzymes, the plate was incubated at 37°C and run over 1, 2 and 3 h time points. The reaction was stopped, and the ADP was detected by adding 10 μL of 50 mM HEPES (pH 7.4), 400 mM NaCl, 20 mM EDTA, 0.01% Brij35, 75 μg/mL anti‐ADP monoclonal antibody, and 4 nM ADP far red tracer. The plate was sealed, centrifuged at 600 g for 1 min, and left at room temperature for 1 h. FP readings for the Hsp90 ATPase Transcreener assays were performed on a Clariostar plate reader ([…]). A blank mP signal composed of protein, antibody, labelled ADP, but no ATP substrate gave similar mP values to those seen in the no‐protein controls. The upper limit of the assay window was defined by a no‐protein control, and the mP in the presence of heat shock protein was subtracted from this control to generate a change in polarisation (ΔmP), which was plotted on the activity graphs. Therefore, the data take into account the spontaneous hydrolysis of ATP. Each value is the mean of triplicate determinations with standard deviations (SD) shown. IC50 values were calculated using GraphPad Prism software with the nonlinear regression curve fitted to the log (inhibitor concentration) against the raw mP values on the linear portion of the standard curve.

Consider `CCOc1cc(C2NC(=O)NC(C)=C2C(=O)OCc2ccc3c(c2)OCO3)ccc1O` (stereo not shown) [Compound 1], for which, in the data set with Bcl3-p50, the “Activity within the Bcl3-binding assays” value is “not active”. For the same molecule, the “Inhibitory activity in colony forming assay, HCC1954” value in the data set with HCC1954 cells is reported as “potent inhibitory activity”.
Take `CC1=C(C(=O)OCc2ccccc2)C(c2ccccc2F)NC(=O)N1` (stereo not shown) [Compound 5m, Benzyl 4‐(2‐Fluorophenyl)‐6‐Methyl‐2‐Oxo‐1,2,3,4‐Tetrahydropyrimidine‐5‐Carboxylate]: the results for the IC50 (in the data set on MCF-7 cells; in data set [2]) were 15.7 µM and 16.6 µM, respectively. The “% Clonogenicity (MCF-7, 10 μM)” value with MCF-7 cells worked out at 99.95 ± 2.40%. Further, the GI50 in the data set with MDA-MB-231 cells turned out to be 84.9 µM; in the data set on HEK-293 cells, 20.4 µM. For the same molecule, the viability at 10 µM in the data set on MDA-MB-231 cells is 95.2 ± 3.72%. Further, the viability at 24 h, 10 µM in data set [1] came out at 97.7 ± 3.27%.
As for `CC1=C(C(=O)OCc2ccccc2)C(c2ccc(C)cc2F)NC(=O)N1` (stereo not shown) [Compound 5n, Benzyl 4‐(2‐Fluoro‐4‐Methylphenyl)‐6‐Methyl‐2‐Oxo‐1,2,3,4‐Tetrahydropyrimidine‐5‐Carboxylate], the IC50 stood at 7.17 µM in the data set with MCF-7 cells and 74.6 µM in data set [2]. Besides, in the data set on MCF-7 cells, the “% Clonogenicity (MCF-7, 10 μM)” value stood at 90.54 ± 0.81%. The GI50 in the data set with MDA-MB-231 cells worked out at 86.7 µM; in the data set with HEK-293 cells it was 39.6 µM. Moreover, in the data set with MDA-MB-231 cells, the viability at 10 µM was 97.3 ± 1.3%. The viability at 24 h, 10 µM in data set [1] was 98.7 ± 2.49%.
